The test system of data set [1] is GLP1R. Particulars: in words; cited from earlier work. The procedure:
In the absence of suitable antagonists, agonists such as exendin4 can be used as PET tracers, but care must be taken to avoid unwanted pharmacologic effects. […] Doses of around 0.5 µg/kg elicit up to 50% blocking of the signal.

Data set [2] deals with GLP1R. The conditions noted are these: in words, cited from earlier work. As to the method: Exendin4 is a synthetic peptide that binds to GLP1R with nanomolar affinity and high specificity ([4]). […] In the absence of suitable antagonists, agonists such as exendin4 can be used as PET tracers, but care must be taken to avoid unwanted pharmacologic effects. […] Doses of around 0.5 µg/kg elicit up to 50% blocking of the signal.

On the set-up of data set [3]: species or system human. The conditions noted are these: in vivo; for Plasma-to-blood ratio: human, iv, 0.5 MBq/kg. As to the method:
Dynamic PET was initiated at administration and continued for 60 min. Blood sampling for glucose was performed before and during the scan as a safety precaution, as exendin4 can stimulate insulin secretion at pharmacologic doses. For 3 individuals, arterial sampling was performed at 5, 30, and 60 min after ^68Ga-exendin4 administration to measure the radioactivity in whole blood and plasma and to determine the metabolic stability of the tracer (the methods are shown in the supplemental materials, available at http://jnm.snmjournals.org) (17). Abdominal tissues of interest, including pancreas (target tissue), aorta (input signal), kidney (excretion), and spleen and erector spinae muscle (negative reference tissues) were manually segmented on coregistered PET/CT images using […] software, version 2.9 (Turku PET Center). The aorta was delineated by segmenting single voxels fully within the lumen of the descending aorta. The arterial plasma image-derived input function was generated by correcting the aorta signal for plasma-to-whole-blood partitioning and for the percentage of intact ^68Ga-exendin4 during the scan (based on a population estimate).

The target in data set [4] is T1, GLP1R (Macaca fascicularis, UniProt F8V479).
T1 construct: from tissue; host or cells: pancreas of living cynomolgus monkeys (in vivo PET)
T1 sequence (F8V479 24-463): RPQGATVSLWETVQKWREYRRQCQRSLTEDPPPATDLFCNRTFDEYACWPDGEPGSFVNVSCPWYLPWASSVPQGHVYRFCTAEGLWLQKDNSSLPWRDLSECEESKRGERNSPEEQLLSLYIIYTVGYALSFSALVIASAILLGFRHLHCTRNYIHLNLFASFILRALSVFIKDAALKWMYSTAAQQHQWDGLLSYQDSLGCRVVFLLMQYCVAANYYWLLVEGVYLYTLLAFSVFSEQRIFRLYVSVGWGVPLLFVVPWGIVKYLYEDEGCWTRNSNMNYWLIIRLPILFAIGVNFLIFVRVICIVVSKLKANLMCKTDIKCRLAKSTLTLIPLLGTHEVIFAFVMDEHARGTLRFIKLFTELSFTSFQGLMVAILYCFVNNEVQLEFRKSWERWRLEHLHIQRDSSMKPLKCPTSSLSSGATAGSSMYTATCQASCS
As to the kind of experiment: 68Ga-exendin4 PET dose escalation (self-blocking) study in NHP pancreas, Logan Vt. It is filed as in vivo, cynomolgus NHPs. Particulars: Vt of 68Ga-exendin4 vs coinjected unlabeled precursor peptide dose, 12 scans, estimated. As to the method: A ^68Ga-exendin4 PET/CT imaging study on healthy cynomolgus NHPs was in part reported and described in detail previously ([5]). Briefly, NHPs were scanned by ^68Ga-exendin4 PET using a dose escalation study design in which several examinations were performed, several hours apart, over the course of one or several experimental days. Each subsequent scan entailed a higher peptide mass and radioactive dose to minimize influence from the preceding scan (Table 1). The resulting dataset enabled analysis of the self-blocking effect of the increasing amounts of coinjected unlabeled exendin4 precursor peptide.
Previously, only the simplified SUV analysis of 3 of the NHPs (8 scans) was reported ([5]). In preparation for the design of the clinical study, to better understand the peptide doses at which self-blocking starts to occur, we reanalyzed the dynamic NHP data from all 12 scans by graphical analysis using an image-derived blood plasma input.
Pancreas and other tissues of interest (such as spleen as a negative reference tissue) were delineated using PMOD, version 4.0 (PMOD Technologies). The PET signal for each tissue and time frame was corrected for the injected amount, and the image-derived input function was extracted by segmenting voxels fully within the lumen of the descending aorta as identified on early PET frames and coregistered CT projections. […]

A further data set has as its target T2, GLP1R in the pancreas (Homo sapiens, UniProt P43220).
T2 construct: underwent PET/CT scanning for GLP1R availability in the pancreas (^68Ga-exendin4); from tissue; host or cells: pancreas of living individuals with type 2 diabetes (in vivo PET/CT)
It is filed as in vivo. The conditions noted are these: humans with T2D, peptide dose less than 0.2 µg/kg; no negative correlation between peptide mass dose and net Ki. The procedure: The PET assessments were performed 3 h after a standardized meal followed by fasting, to minimize the variability in GLP1 levels at the time of scanning. The individuals were examined over the abdomen with a Discovery MI PET/CT scanner (20-cm field of view; GE Healthcare). Low-dose CT was performed for attenuation correction and anatomic coregistration of PET images. The dose of the CT scan was limited by dosimetry considerations, given that each individual underwent up to 4 PET/CT examinations over the entire clinical study. A 0.5 MBq/kg target dose of ^68Ga-exendin4 (0.46 ± 0.03 MBq/kg, corresponding to 0.14 ± 0.04 μg of peptide per kilogram) was administered intravenously as a bolus. The amount of administered ^68Ga-exendin4 was based primarily on limiting the associated dose of DO3A-VS-exendin4 precursor peptide to below 0.2 μg/kg. This limit was imposed to minimize any self-blocking, and the cutoff was determined from the NHP dose escalation studies. Dynamic PET was initiated at administration and continued for 60 min. […] For 3 individuals, arterial sampling was performed at 5, 30, and 60 min after ^68Ga-exendin4 administration to measure the radioactivity in whole blood and plasma and to determine the metabolic stability of the tracer (the methods are shown in the supplemental materials, available at http://jnm.snmjournals.org) (17). […]

Data on 3 substances can be found in paper PMC9051593, “Glucagonlike Peptide-1 Receptor Imaging in Individuals with Type 2 Diabetes” (Journal of Nuclear Medicine, 2022).

Like-named read-outs stand apart in the source and are kept apart here.

T2 sequence (P43220 24-463): as the sequence (F8V479 24-463) above, with N112S, S120F, G202S, V205L, F237L, R241W, V249I counted along it

Regarding exendin4 [reference compound], in the data set with GLP1R [1], the GLP1R agonist potency result is “subnanomolar”. Besides, the “affinity for GLP1R” value in the data set on GLP1R [2] was “nanomolar”.

For the substance ^68Ga-DO3A-VS-exendin4 [^68Ga-exendin4], the Plasma-to-blood ratio in data set [3] (5 min) is reported as 1.76 ± 0.06 1/1; in data set [3] (0.5 h), 1.80 ± 0.05 1/1; in data set [3] (1 h), 1.79 ± 0.05 1/1. In addition, the plasma partitioning entry in data set [3] is given as “≈ 1.8”. In addition, the “affinity for GLP1R” value with GLP1R [2] (radiolabeled tracer) was “nanomolar range”.

Consider DO3A-VS-exendin4, for which the “dose inducing a 50% decrease in binding (in vivo half-maximal inhibitory concentration)” value at GLP1R [4] was “approximately 0.45 µg/kg”. The self-blocking result at GLP1R in the pancreas is “negligible”.
